Test results: the RepoRT retention time repository

Assay: HILIC, Waters ACQUITY UPLC BEH Amide, 100 × 2.1 mm, 1.7 µm; A: water + 0.125% formic acid + 10 mM ammonium formate; B: 5% water + 95% acetonitrile + 0.125% formic acid + 10 mM ammonium formate; gradient (min/%B) 0/100 2/100 7.7/70 9.5/40 10.25/30 12.75/100 17/100
Settings: stereoisomer not certain

| LC retention time | Compound |
| --- | --- |
| 9.17 min | OCC1OC(OCC2OC(OC3(CO)OC(CO)C(O)C3O)C(O)C(O)C2O)C(O)C(O)C1O (stereo not drawn) [Raffinose] |
| 8.16 min | NC(N)=NCC(=O)O [Guanidinoacetic acid] |
| 7.06 min | N[C@H]1[C@@H](OP(=O)(O)O)O[C@H](CO)[C@H](O)[C@@H]1O [alpha-Galactosamine-1-phosphate] |
| 4.88 min | CC(=O)CC(C)(C)O [4-Hydroxy-4-methyl-2-pentanone] |
| 5.18 min | CNC(=C[N+](=O)[O-])NCCSCc1ccc(CN(C)C)o1 [Ranitidine] |
| 9.43 min | Nc1nc2c(ncn2C2CC(OP(=O)(O)O)C(CO)O2)c(=O)[nH]1 (stereo not drawn) [2'-Deoxyguanosine 3'-monophosphate] |
| 3.01 min | CCCCCCCCCCCCCCCCC(=O)O [Heptadecanoic acid] |
| 2.6 min | CNCCC(Oc1cccc2ccccc12)c1cccs1 (stereo not drawn) [Duloxetine] |
| 5.9 min | Nc1ccnc(=O)[nH]1 [Cytosine] |
| 3.1 min | CCCCCC=CCC=CCCCCCCCC(=O)OC(CC(=O)[O-])C[N+](C)(C)C (stereo not drawn) [Linoleoylcarnitine] |
| 2.96 min | O=c1ccn(C2CC(O)C(CO)O2)c(=O)[nH]1 (stereo not drawn) [2-Deoxyuridine] |
| 9.88 min | NC(CCCC(N)C(=O)O)C(=O)O (stereo not drawn) [2,6-Diaminopimelic acid] |
| 1.95 min | Nc1nc(Cl)nc2c1ncn2C1CC(O)C(CO)O1 (stereo not drawn) [Cladribine] |
| 3.78 min | Cc1ncc(CO)c(CO)c1O [Pyridoxine] |
| 6.98 min | Nc1ccccc1C(=O)CC(N)C(=O)O (stereo not drawn) [Kynurenine] |
| 6.4 min | NCCc1ccc(O)c(O)c1 [Dopamine] |
| 7.86 min | NCCCC(=O)O [gamma-Aminobutyric Acid] |
| 8.47 min | CCCCCCCCO [Octanol] |
| 8.14 min | CC(C)CC(NC(=O)CN)C(=O)O (stereo not drawn) [Glycyl-leucine] |
| 1.26 min | O=c1cc(-c2ccccc2)oc2ccc(O)cc12 [6-Hydroxyflavone] |
| 1.7 min | CCCc1nc(C)c2c(=O)[nH]c(-c3cc(S(=O)(=O)N4CCN(CC)CC4)ccc3OCC)nn12 [Vardenafil] |
| 3.01 min | CC(=O)OCC(=O)NCCCOc1cccc(CN2CCCCC2)c1 [Roxane] |
| 2.14 min | O=C1C2CCCCC2C(=O)N1CCCCN1CCN(c2nsc3ccccc23)CC1 (stereo not drawn) [Perospirone] |
| 3.5 min | CC(C)(CO)C(O)C(=O)NCCC(=O)O (stereo not drawn) [Pantothenic acid] |
| 1.12 min | Cc1ncc([N+](=O)[O-])n1CC(C)O (stereo not drawn) [Secnidazole] |
| 3.34 min | CC(O)C(C)O (stereo not drawn) [2,3-Butanediol] |

| LC retention time | Compound |
| --- | --- |
| 8.85 min | NC(CCC(=O)O)C(=O)O (stereo not drawn) [Glutamic acid] |
| 4.61 min | CNNCc1ccc(C(=O)NC(C)C)cc1 [Procarbazine] |
| 1.77 min | CC(C)C(=O)O [Isobutyric acid] |
| 7.83 min | C[N+](C)(C)CC(O)CC(=O)[O-] (stereo not drawn) [Carnitine] |
| 6.6 min | CC1OC(OCC2OC(Oc3c(-c4ccc(O)c(O)c4)oc4cc(O)cc(O)c4c3=O)C(O)C(O)C2O)C(O)C(O)C1O (stereo not drawn) [Rutin] |
| 4.05 min | O=C1c2cccc3c2C(CCC3)CN1C1CN2CCC1CC2 (stereo not drawn) [Palonosetron] |
| 8.03 min | CC(=O)NCCCCC(N)C(=O)O (stereo not drawn) [N-epsilon-Acetyllysine] |
| 1.81 min | COC1C=COC2(C)Oc3c(C)c(O)c4c(O)c(c(C=NN5CCN(C6CCCC6)CC5)c(O)c4c3C2=O)NC(=O)C(C)=CC=CC(C)C(O)C(C)C(O)C(C)C(OC(C)=O)C1C (stereo not drawn) [Rifapentine] |
| 1.91 min | CN(CCCN1c2ccccc2CCc2ccccc21)CC(=O)c1ccc(Cl)cc1 [Lofepramine] |
| 1.9 min | O=C(OC1CC2CC3CC(C1)N2CC3=O)c1c[nH]c2ccccc12 (stereo not drawn) [Dolasetron] |
| 4.89 min | CCCCCC(=O)O [Hexanoic acid] |
| 6.99 min | Cn1c(=N)ccn(C2OC(CO)C(O)C2O)c1=O (stereo not drawn) [3-Methylcytidine] |
| 6.99 min | CNC(C(=O)O)C(C)C (stereo not drawn) [N-Methylvaline] |
| 8.98 min | NC(CCC(=O)NC(CS)C(=O)O)C(=O)O (stereo not drawn) [gamma-Glutamyl-cysteine] |
| 1.2 min | O=CNC1CCCCC1 [N-Cyclohexylformamide] |
| 5 min | CC(C)CC(N)C(=O)NC(C)C(=O)O (stereo not drawn) [Leu-Ala] |
| 7.19 min | CC(=O)OC(CC(=O)[O-])C[N+](C)(C)C (stereo not drawn) [Acetylcarnitine] |
| 3.54 min | Nc1ncnc2c1ncn2C1OC(CO)CC1O (stereo not drawn) [Cordycepin] |
| 0.97 min | C=CC(C)(O)CCC=C(C)C (stereo not drawn) [Linalool] |
| 1.3 min | COc1ccc(C(=O)O)cc1 [P-Anisic acid] |
| 1.28 min | CC(C)CC(NC(=O)OCc1ccccc1)C(=O)O (stereo not drawn) [N-Carbobenzyloxyleucine] |
| 9.3 min | NCCCCN [Putrescine] |
| 1.33 min | CCOC(=O)C(CCc1ccccc1)NC1CCc2ccccc2N(CC(=O)O)C1=O (stereo not drawn) [Benazepril] |
| 7.54 min | Nc1nc(=O)n(C2OC(CO)C(O)C2O)cc1CO (stereo not drawn) [5-Hydroxymethylcytidine] |
| 1.23 min | CC(c1cc2ccccc2s1)N(O)C(N)=O (stereo not drawn) [Zileuton] |
| 1.41 min | O=C(O)c1c[nH]c2ccccc12 [Indole-3-carboxylic acid] |

More lines, now with the values behind:

| Compound | LC retention time |
| --- | --- |
| O=C(O)CCc1ccccc1 [Hydrocinnamic acid] | 8.71 min |
| CC12CC3CC(C)(C1)CC(N)(C3)C2 [Memantine] | 4.24 min |
| CC(O)(CS(=O)(=O)c1ccc(F)cc1)C(=O)Nc1ccc(C#N)c(C(F)(F)F)c1 (stereo not drawn) [Bicalutamide] | 0.99 min |
| O=C(O)C(=O)Cc1c[nH]c2ccccc12 [Indole-3-pyruvic acid] | 5.11 min |
| CCN1CCN(c2cc3c(cc2F)c(=O)c(C(=O)O)cn3C2CC2)CC1 [Enrofloxacin] | 3.31 min |
| Cc1ncsc1CCO [4-Methyl-5-thiazoleethanol] | 1.21 min |
| CN(C)CCC=C1c2ccccc2COc2ccc(CC(=O)O)cc21 [Olopatadine] | 4.41 min |
| NC(CCC(=O)NC(CSSCC(N)C(=O)O)C(=O)NCC(=O)O)C(=O)O [L-Cysteine-glutathione disulfide] | 10.2 min |
| CN1C(=O)C(O)N=C(c2ccccc2)c2cc(Cl)ccc21 (stereo not drawn) [Temazepam] | 1.15 min |
| O=Cc1c[nH]c2ccccc12 [Indole-3-carboxaldehyde] | 1.16 min |
| NC(N)=NCCCC(N)C(=O)N1CCCC1C(=O)O (stereo not drawn) [Arg-Pro] | 9.51 min |
| C[N+](C)(C)CCCCC(N)C(=O)[O-] (stereo not drawn) [NEPSILON,NEPSILON,NEPSILON-TRIMETHYLLYSINE] | 9.29 min |
| CCC1(O)C(=O)OCc2c1cc1n(c2=O)Cc2cc3c(CN(C)C)c(O)ccc3nc2-1 (stereo not drawn) [Topotecan] | 5.72 min |
| CC(N)Cc1ccccc1 (stereo not drawn) [Amphetamine] | 4.6 min |
| CNc1ccccc1 [N-Methylaniline] | 1.06 min |
| CCCCCN=C(N)NN=Cc1c[nH]c2ccc(OC)cc12 [Tegaserod] | 2.84 min |
| Nc1ccn(C2CCC(CO)O2)c(=O)n1 (stereo not drawn) [2,3-Dideoxycytidine] | 4.54 min |
| Nc1nc2c(ncn2C2CC(O)C(CO)O2)c(=O)[nH]1 (stereo not drawn) [2'-Deoxyguanosine] | 6.4 min |
| CNc1ncnc2c1ncn2C1OC(CO)C(O)C1O (stereo not drawn) [6-Methyladenosine] | 3.56 min |
| CC=C1C2C=C(C)CC1(N)c1ccc(=O)[nH]c1C2 (stereo not drawn) [Huperzine] | 5.74 min |
| CCN(C(C)=O)c1cccc(-c2ccnc3c(C#N)cnn23)c1 [Zaleplon] | 1.02 min |

| Compound | LC retention time |
| --- | --- |
| CC(C)C12OC1C1OC13C1(C)CCC4=C(COC4=O)C1CC1OC13C2O (stereo not drawn) [Triptolide] | 1.02 min |
| COC(=O)c1ccccc1C(=O)OC [Dimethyl phthalate] | 1.04 min |
| NCC(=O)c1ccccc1 [2-Aminoacetophenone] | 1.08 min |
| CS(=O)CCC(N)C(=O)O (stereo not drawn) [Methioninesulfoxide] | 8.62 min |
| CC12CCC(=O)C=C1CCC1C2CCC2(C)C1CCC2(C)O (stereo not drawn) [Methyltestosterone] | 1.04 min |
| CC(C(=O)O)c1ccc(CC2CCCC2=O)cc1 (stereo not drawn) [Loxoprofen] | 1.09 min |
| CCCC(C)(COC(N)=O)COC(N)=O [Meprobamate] | 1.25 min |
| CCCCCC=CCC=CCC=CCC=CCCCC(=O)NCCc1ccc(O)c(O)c1 [Arachidonyl dopamine] | 1.14 min |
| C[S+](CCC(N)C(=O)[O-])CC1OC(n2cnc3c(N)ncnc32)C(O)C1O (stereo not drawn) [S-Adenosyl-methionine] | 9.7 min |
| COC1C(O)C(CO)OC1n1cnc2c(=O)[nH]c(N)nc21 (stereo not drawn) [2'-O-Methylguanosine] | 5.72 min |
| CCC(O)CC(=O)O (stereo not drawn) [3-Hydroxyvaleric acid] | 1.29 min |
| CC=CC(=O)N(CC)c1ccccc1C [Crotamiton] | 0.97 min |
| N#CC(O)c1ccc(O)cc1 (stereo not drawn) [4-Hydroxymandelonitrile] | 2.63 min |
| OCC1OC(Oc2cc(O)cc(C=Cc3ccc(O)cc3)c2)C(O)C(O)C1O (stereo not drawn) [trans-Piceid] | 4.64 min |
| CN1C2CC(OC(=O)C(CO)c3ccccc3)CC1C1OC12 (stereo not drawn) [Scopolamine] | 3.75 min |
| OCc1c[nH]c2ccccc12 [Indole-3-carbinol] | 1.24 min |
| CC1=C2C3OC(=O)C(C)C3CCC2(C)C=CC1=O (stereo not drawn) [alpha-Santonin] | 1.07 min |
| Clc1ccc(CON=C(Cn2ccnc2)c2ccc(Cl)cc2Cl)c(Cl)c1 [Oxiconazole] | 1.08 min |
| Cc1ccc(O)c(C(CCN(C(C)C)C(C)C)c2ccccc2)c1 (stereo not drawn) [Tolterodine] | 2.13 min |
| CCC(=O)C(CC(C)N(C)C)(c1ccccc1)c1ccccc1 (stereo not drawn) [Methadone] | 2 min |
